Measurements: patent US5506204A, “Muramyl compounds for treatment of septic shock” (Peptech (UK) Limited, priority 1991, dated 1996)
Like-named read-outs stand apart in the source and are kept apart here.

What was measured:
neutrophils [1] = system: neutrophils
Procedure: (§1) Neutrophils were isolated from peripheral blood. 3.5 ml of heparinised blood was spread over M-PRM medium (Flow Laboratories) and centrifuged for 40 minutes at 400g at 20° C. […] The cells were adjusted to a concentration of 2×10^6 ml.
(§2) Acid phosphatase: 50 μl of substrate mixture, consisting of 0.24% paranitrophenyl phosphate (Boehring) and 0.84% NaCl in a sodium citrate buffer (pH 5.5) were added to cells and incubated for 30 minutes at 30° C. before the reaction was by adding 100 μl of 0.2M NaOH. The optical density at 405 mu was measured with a Multiscan Titertek Plus (Flow Laboratories).
(§3) For chemiluminescence, superoxide anion production, myeloperoxidase and acid phosphatase both the spontaneous and induced reactions were measured. Induction was performed by exposing the cells to opsonized zymosan (30 μl, 20 mg/ml) for 30 minutes at 37° C. before the assay.
(§4) In the treated group GMDP was given per os on days -2 and -1 before the operation, and subcutaneously on days +1, +2 and +3 after the operation at a dose of 1-2 mg/day. The total dose of GMDP was […]. On day +5 after the operation neutrophil function was again assessed in all patients by the same parameters as specified above.

neutrophils [2] = system: neutrophils; remark: listed apart in the source
Procedure: as §1, §2, §3
(§5) On day before treatment with GMDP (day -1) the neutrophil function of all patients was measured by the tests described above in Example 1. In the GMDP-treated group, GMDP was administered parenterally at a dose of 1-2 mg/day for five consecutive days. The total dose of GMDP was […].
(§6) One day after the cessation of GMDP treatment (day +6), neutrophil function was again measured in all patients.

serum TNF = assay: Example 7: LPS induction of serum TNF; format: in vivo, BALB/c mice; conditions: C. parvum-primed mice, 100 μg (equimolar) IP, LPS 25 μg 18 hours later; FIG. 5
Procedure: In this experiment, 4 compounds were tested and these are: MDP, GMDP-A, GMDP-OBu and GMDP. Saline was administered to control mice. BALB/c mice (6 mice/group) were injected intraperitoneally with 1.4 mg of dead C. parvum (0.2 ml of a 7 mg/ml suspension.). Mice were subsequently (2 weeks later) treated with saline, MDP (100 μg) or analogue (100 μg) in 0.5 ml saline IP. The dose of each `MDP` was adjusted so that animals received equimolar amounts. LPS (25 μg) was injected 18 hours after the injection of MDP/analogue and mice were subsequently sacrificed and bled out. TNF was determined by standard capture ELISA assay.

[3] = system: patients undergoing surgery for colon cancer
Procedure: All the patients entering this trial were about to undergo major abdominal surgery for the resection of carcinoma of the colon.
as §4
The patients were monitored for post-operative sepsis for four weeks following the operation. The septic complications which were scored included disseminated sepsis, pneumonia, peritonitis and abdominal abscesses, all of which are known to lead to septic shock.

neutrophils [4] = system: neutrophils; remark: listed apart in the source
Procedure: as §1
Adhesion: 100 μl of neutrophil suspension were placed in the wells of a flat-bottomed culture dish, and incubated at 37° C. for 60 minutes. After washing off the non-adhesive cells, the adhered neutrophils were fixed with ethanol and stained with Romanovsky-Giemsa dye. After washing out the free dye, the cell-associated dye was dissolved in isopropanol, and the optical density (OD650) of the solution was determined using an "ELISA II" microprocessor (Boehringer). The number of adherent cells was calculated by reference to a standard curve.
as §5, §6

neutrophils [5] = system: neutrophils; remark: listed apart in the source
Procedure: as §1
(§7) Chemiluminescence: Luminol-dependent chemiluminescence was measured on a 1251 Luminometer (LKB).
as §3, §4

neutrophils [6] = system: neutrophils; remark: listed apart in the source
Procedure: as §1
Superoxide anion production was determined by the NBT test (Merck).
as §3, §5, §6

neutrophils [7] = system: neutrophils; remark: listed apart in the source
Procedure: as §1, §7, §3, §5, §6

neutrophils [8] = system: neutrophils; remark: listed apart in the source
Procedure: as §1
Myeloperoxidase: 100 μl of substrate mixture, consisting of 0.04% orthophenylene diamine (Sigma) and 0.014% hydrogen peroxide in phosphate citrate buffer (pH 5.0) was added to cells and incubated for 10 minutes before the reaction was stopped with 100 μl of 10% sulphuric acid. The optical density at 492 mu was measured with a Multiscan Titertek Plus (Flow Laboratories).
as §3, §5, §6

mice = conditions: acute toxicity in mice; cited from earlier work
[9] = system: patients suffering from acute sepsis; conditions: GMDP parenterally 1-2 mg/day for five days
Procedure: The patients entering this trial were already suffering from serious systemic bacterial sepsis arising as a result of destructive cholecystitis, abscesses of the abdominal cavity, peritonitis, pancreonecrosis and post-operative pneumonia.
as §5

[10] = opsonized zymosan, Day -3 (before treatment)
[11] = opsonized zymosan, Day -3 to Day +5
[12] = opsonized zymosan, Day -1 (before treatment)
[13] = opsonized zymosan, Day -1 to Day +6

CC(=O)NC1C(OC2C(CO)OC(O)C(NC(C)=O)C2OC(C)C(=O)NC(C)C(=O)NC(CCC(=O)O)C(N)=O)OC(CO)C(O)C1O [GMDP, N-acetyl-D-glucosaminyl-(β1-4)-N-acetylmuramyl-L-alanyl-D-isoglutamine]
Acid phosphatase, spontaneous (neutrophils [1]; Day +5): 114.9 ± 2.4 O.D. 405μ | Acid phosphatase, spontaneous (neutrophils [1]; Day -3 (before treatment)): 133.8 ± 75 O.D. 405μ | Acid phosphatase, spontaneous % Change (neutrophils [1]; Day -3 to Day +5): -14.1% | Acid phosphatase, induced (neutrophils [1]; opsonized zymosan, Day +5): 120.8 ± 3.2 O.D. 405μ | Acid phosphatase, induced (neutrophils [1]; [10]): 172.3 ± 18.8 O.D. 405μ | Acid phosphatase, induced % Change (neutrophils [1]; [11]): -29.94% | Acid phosphatase, spontaneous (neutrophils [2]; Day +6): 251.3 ± 16.1 O.D. 405μ | Acid phosphatase, spontaneous (neutrophils [2]; Day -1 (before treatment)): 119.4 ± 10.1 O.D. 405μ | Acid phosphatase, spontaneous % Change (neutrophils [2]; Day -1 to Day +6): +110.5% | Acid phosphatase, induced (neutrophils [2]; opsonized zymosan, Day +6): 201 ± 14.3 O.D. 405μ | Acid phosphatase, induced (neutrophils [2]; [12]): 104.4 ± 3.6 O.D. 405μ | Acid phosphatase, induced % Change (neutrophils [2]; [13]): +92.5% | effect on LPS induction of serum TNF (serum TNF): able to suppress the production of TNFα | No of Patients with Septic Complications ([3]; 16 treated patients, GMDP 1-2 mg/day per os days -2,-1, s.c. days +1 to +3, monitored 4 weeks): 3 | Mortality (%) ([3]; GMDP before and after operation, control 15%): 6.25% | Incidence of Septic Complications (%) ([3]; GMDP before and after operation, control 50%): 18.75% | Adhesion (neutrophils [4]; Day +6): 52.3 ± 2.3 O.D. 650μ | Adhesion (neutrophils [4]; Day -1 (before treatment)): 34.6 ± 6.2 O.D. 650μ | Adhesion % Change (neutrophils [4]; Day -1 to Day +6): +51.2% | Chemiluminescence, spontaneous (neutrophils [5]; Day +5): 3.37 ± 0.70 mV | Chemiluminescence, spontaneous (neutrophils [5]; Day -3 (before treatment)): 1.82 ± 0.07 mV | Chemiluminescence, spontaneous % Change (neutrophils [5]; Day -3 to Day +5): +85.2% | Chemiluminescence, induced (neutrophils [5]; opsonized zymosan, Day +5): 15.8 ± 4.2 mV | Chemiluminescence, induced (neutrophils [5]; [10]): 11.3 ± 2.1 mV | Chemiluminescence, induced % Change (neutrophils [5]; [11]): +39.8% | Superoxide, spontaneous (neutrophils [6]; Day +6): 84.3 ± 8.7 O.D. 540μ | Superoxide, spontaneous (neutrophils [6]; Day -1 (before treatment)): 55.5 ± 6.4 O.D. 540μ | Superoxide, spontaneous % Change (neutrophils [6]; Day -1 to Day +6): +51.9% | Superoxide, induced (neutrophils [6]; [12]): 92.1 ± 3.21 O.D. 540μ | Superoxide, induced % Change (neutrophils [6]; [13]): +53.2% | Chemiluminescent, spontaneous (neutrophils [7]; Day +6): 4.16 ± 0.14 mV | Chemiluminescent, spontaneous (neutrophils [7]; Day -1 (before treatment)): 2.41 ± 0.14 mV | Chemiluminescent, spontaneous % Change (neutrophils [7]; Day -1 to Day +6): +72.6% | Chemiluminescent, induced (neutrophils [7]; opsonized zymosan, Day +6): 21.3 ± 3.51 mV | Chemiluminescent, induced (neutrophils [7]; [12]): 9.41 ± 2.1 mV | Chemiluminescent, induced % Change (neutrophils [7]; [13]): +126.4% | Myeloperoxidase, spontaneous (neutrophils [8]; Day +6): 595.2 ± 48.3 O.D. 492μ | Myeloperoxidase, spontaneous (neutrophils [8]; Day -1 (before treatment)): 504.5 ± 118 O.D. 492μ | Myeloperoxidase, spontaneous % Change (neutrophils [8]; Day -1 to Day +6): +17.9% | Myeloperoxidase, induced (neutrophils [8]; opsonized zymosan, Day +6): 587.1 ± 96.3 O.D. 492μ | Myeloperoxidase, induced (neutrophils [8]; [12]): 520.3 ± 60.1 O.D. 492μ | Myeloperoxidase, induced % Change (neutrophils [8]; [13]): +12.8% | LD50 (mice): 7 g/kg | No of patients with progression of septic complications ([9]; 14 treated patients): 4 | Mortality (%) ([9]; control 27%): 14.3% | Incidence of progression of septic complications (%) ([9]; control 61%): 28.6%
